Experimental data as given in patent US20160051536A1, “COMPOSITIONS TO ALLEVIATE PRESYSTEMIC METABOLISM OF OPIOIDS” (VIRGINIA COMMONWEALTH UNIVERSITY, priority 2013, published 2016).

Tested on: not given
Assay: not given
Conditions: in words; cited from earlier work

Molecule	oral bioavailability
C=CCN1CC[C@]23c4c5ccc(O)c4O[C@H]2C(=O)CC[C@@]3(O)[C@H]1C5 [naloxone]	low

Tested on: UGT
Assay: Effect of inhibitors on buprenorphine-glucuronide formation in LS180 cells
Conditions: buprenorphine 10 μM, inhibitor 100 μM, 2 hours, vs control, p<0.05, n.d. = glucuronide not detected
Protocol: Unless otherwise indicated, the in vitro experiments described in the following section were conducted using human colon adenocarcinoma LS180 cells.
Human intestinal cells (LS180) were cultured in Dulbecco's modified Eagle's medium (DMEM) supplemented with 10% fetal bovine serum and 1% non-essential amino acids in microplates. […] The cells were rinsed with DPBS, aspirated, and the solutions (37° C.) were added to the cells and incubated for 2 hours. The reactions were stopped and protein was precipitated by adding 20% acetonitrile. After freezing (−80° C.) and thawing, samples were centrifuged and analyzed by HPLC using an Alltima HP C18 column (4.6×100 mm, 3 μm) with gradient elution (mobile phase A: acetonitrile; mobile phase B: 10% acetonitrile, 90% aqueous 25 mM ammonium acetate; 0-78% A) followed by detection by fluoresence (excitation 283 nm, emission 346 nm) and quantitation using Waters Empower 2 software. Results were analyzed by one-way ANOVA with Dunnett's post-test (control vs. inhibitors); asterisk designates p<0.05; n.d. designates not detected.

Molecule	formation of buprenorphine glucuronide
COC(=O)c1ccc(O)cc1 [methylparaben]	trend toward a decrease
Oc1ccc(C=Cc2cc(O)cc(O)c2)cc1 [resveratrol]	not detected
COc1cc(C2Oc3cc([C@H]4Oc5cc(O)cc(O)c5C(=O)[C@@H]4O)ccc3OC2CO)ccc1O (stereo partly shown) [silybin]	significantly decreased
COc1c(O)cc2oc3cc(O)c(CC=C(C)C)c(O)c3c(=O)c2c1CC=C(C)C [α-mangostin]	significantly decreased
CCCOC(=O)c1ccc(O)cc1 [propylparaben]	significantly decreased
C=CCc1ccc(O)c(-c2cc(CC=C)ccc2O)c1 [magnolol]	significantly decreased
CCOc1cc(C2OCC(C)O2)ccc1O (stereo not shown) [ethyl vanillin propylene glycol acetal]	significantly decreased
O=c1c(O)c(-c2ccc(O)c(O)c2)oc2cc(O)cc(O)c12 [quercetin]	not detected
CCCOC(=O)c1cc(O)c(O)c(O)c1 [propyl gallate]	not detected
COc1cc(CCC(C)=O)ccc1O [zingerone]	significantly decreased
CCOc1cc(C=O)ccc1O [ethyl vanillin]	significantly decreased
CC(=O)CCc1ccc(O)cc1 [rasketone]	significantly decreased
COc1cc(C=O)ccc1O [vanillin]	significantly decreased
COc1cc(/C=C/C(=O)CC(=O)/C=C/c2ccc(O)c(OC)c2)ccc1O [curcumin]	not detected
C=CCc1ccc(O)c(OC)c1 [eugenol]	significantly decreased
COc1ccccc1O [guaiacol]	significantly decreased
pinoresinol	not detected
CC=Cc1ccc(O)c(OC)c1 [isoeugenol]	not detected

Same assay, conditions: buprenorphine 10 μM, single inhibitors 24 μM, pairs 12 μM each, triple 8 μM each, p<0.05

Molecule	formation of buprenorphine glucuronide
CCCOC(=O)c1cc(O)c(O)c(O)c1 [propyl gallate]	significantly inhibited
COc1cc(C=O)ccc1O [vanillin]	significantly inhibited
CC=Cc1ccc(O)c(OC)c1 [isoeugenol]	significantly inhibited
